Values belong to the molecule of their own block, whether it stands above or below them.
Assays:
[1] = target: STE20-like serine/threonine-protein kinase (Homo sapiens) (UniProt Q9H2G2); test: Inhibition of SLK(h) at 10.0 µM in the Eurofins Kinase panel; conditions: Compound concentration 10.0 uM
[2] = target: Cyclin-dependent kinase 5/CDK5 activator 1 (Homo sapiens) (UniProt Q00535+Q15078); test: Inhibition of CDK5/p25(h) at 10.0 µM in the Eurofins Kinase panel; assay type: protein-complex assay; conditions: Compound concentration 10.0 uM
Oryctolagus cuniculus = species: Oryctolagus cuniculus; conditions: Compound concentration 10.0 uM
[3] = target: TRAF2 and NCK-interacting protein kinase (Homo sapiens) (UniProt Q9UKE5); test: Inhibition of TNIK(h) at 10.0 µM in the Eurofins Kinase panel; conditions: Compound concentration 10.0 uM
[4] = target: 5-hydroxytryptamine receptor 2A (Homo sapiens) (UniProt P28223); conditions: Compound concentration 10.0 uM
[5] = target: Wee1-like protein kinase (Homo sapiens) (UniProt P30291); test: Inhibition of WEE1(h) at 10.0 µM in the Eurofins Kinase panel; conditions: Compound concentration 10.0 uM
[6] = target: Equilibrative nucleoside transporter 1/2/3/4 (Homo sapiens) (UniProt Q99808+Q7RTT9+Q14542+Q9BZD2); conditions: Compound concentration 10.0 uM
Vasopressin V1a receptor = Vasopressin V1a receptor (Homo sapiens, UniProt P37288); test: Assay with bioluminescence detection (AVPR1). (The vasopressin receptor cells react to stimulation of the recombinantly expressed V1a receptors by intracellular release of calcium ions, which can be quantified by the resulting photoprotein luminescence).; assay type: functional, cell-based, CHO-K1
Vasopressin V1a receptor, sequence (P37288 whole entry): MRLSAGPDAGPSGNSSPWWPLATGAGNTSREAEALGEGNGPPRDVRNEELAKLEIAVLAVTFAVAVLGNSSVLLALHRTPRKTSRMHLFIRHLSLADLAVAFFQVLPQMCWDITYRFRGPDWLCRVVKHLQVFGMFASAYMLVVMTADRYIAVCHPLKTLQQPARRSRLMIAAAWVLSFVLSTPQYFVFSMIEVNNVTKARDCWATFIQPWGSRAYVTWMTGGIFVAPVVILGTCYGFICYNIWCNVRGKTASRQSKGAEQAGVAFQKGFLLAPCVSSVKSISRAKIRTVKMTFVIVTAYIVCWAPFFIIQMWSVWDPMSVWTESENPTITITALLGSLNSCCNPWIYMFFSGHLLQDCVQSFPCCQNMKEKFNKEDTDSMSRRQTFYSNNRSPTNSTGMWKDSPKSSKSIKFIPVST

[7] = target: Sodium-dependent dopamine transporter (Homo sapiens) (UniProt Q01959); conditions: Compound concentration 10.0 uM
Sodium-dependent dopamine transporter (Homo sapiens), sequence (Q01959 whole entry): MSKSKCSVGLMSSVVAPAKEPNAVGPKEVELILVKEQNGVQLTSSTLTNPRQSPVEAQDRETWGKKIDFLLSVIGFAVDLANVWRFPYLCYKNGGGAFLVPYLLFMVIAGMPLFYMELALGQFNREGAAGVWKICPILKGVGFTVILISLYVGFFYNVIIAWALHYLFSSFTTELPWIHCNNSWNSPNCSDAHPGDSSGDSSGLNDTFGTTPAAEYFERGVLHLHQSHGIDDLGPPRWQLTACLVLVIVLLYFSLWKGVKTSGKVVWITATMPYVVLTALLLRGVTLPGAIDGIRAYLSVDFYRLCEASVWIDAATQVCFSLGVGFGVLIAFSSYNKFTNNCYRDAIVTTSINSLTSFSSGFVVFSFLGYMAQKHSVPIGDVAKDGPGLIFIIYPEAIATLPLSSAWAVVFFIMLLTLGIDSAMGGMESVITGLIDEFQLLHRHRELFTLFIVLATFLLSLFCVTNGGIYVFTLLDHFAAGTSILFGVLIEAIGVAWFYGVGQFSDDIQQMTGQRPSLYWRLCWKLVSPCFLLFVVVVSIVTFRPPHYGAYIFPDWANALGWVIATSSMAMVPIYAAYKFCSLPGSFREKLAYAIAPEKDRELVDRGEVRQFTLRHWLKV

[8] = target: Growth hormone secretagogue receptor type 1 (Homo sapiens) (UniProt Q92847); conditions: Compound concentration 10.0 uM
Growth hormone secretagogue receptor type 1 (Homo sapiens), sequence (Q92847 whole entry): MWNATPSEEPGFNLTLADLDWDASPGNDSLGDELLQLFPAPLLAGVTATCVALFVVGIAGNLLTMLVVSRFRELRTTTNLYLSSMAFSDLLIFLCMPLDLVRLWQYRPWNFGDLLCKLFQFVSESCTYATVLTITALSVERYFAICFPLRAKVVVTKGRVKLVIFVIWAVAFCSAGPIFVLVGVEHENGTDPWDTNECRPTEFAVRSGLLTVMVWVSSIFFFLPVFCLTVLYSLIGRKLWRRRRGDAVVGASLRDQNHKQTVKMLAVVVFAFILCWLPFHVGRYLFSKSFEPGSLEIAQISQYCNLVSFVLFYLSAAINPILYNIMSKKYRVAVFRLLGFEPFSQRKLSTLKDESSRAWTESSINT

[9] = target: Glycogen synthase kinase-3 alpha (Homo sapiens) (UniProt P49840); test: Inhibition of GSK3alpha(h) at 10.0 µM in the Eurofins Kinase panel; conditions: Compound concentration 10.0 uM
Caspase-1 (Homo sapiens) = Caspase-1 (Homo sapiens) (UniProt P29466); test: Inhibition of Peptidase, CASP1 (Caspase 1) at 10 µM in the Eurofins-Panlabs enzyme assay (Eurofins_assay_163000); conditions: Compound concentration 10.0 uM
[10] = target: Glutamate receptor ionotropic, kainate (Rattus norvegicus) (UniProt P22756+Q01812+P42260+P42264+Q63273); test: Inhibition of Glutamate, Kainate at 10 µM in the Eurofins-Panlabs radioligand binding assay (Eurofins_assay_232700); conditions: Compound concentration 10.0 uM
[11] = target: Vascular endothelial growth factor receptor 1 (Homo sapiens) (UniProt P17948); test: Inhibition of Flt1(h) at 10.0 µM in the Eurofins Kinase panel; conditions: Compound concentration 10.0 uM
[12] = target: Cathepsin G (Homo sapiens) (UniProt P08311); test: Inhibition of Peptidase, CTSG (Cathepsin G) at 10 µM in the Eurofins-Panlabs enzyme assay (Eurofins_assay_112510); set-up: substrate with concentration; conditions: Compound concentration 10.0 uM
[13] = target: Epidermal growth factor receptor (Homo sapiens) (UniProt P00533); test: Inhibition of Protein Tyrosine Kinase, EGF Receptor at 10 µM in the Eurofins-Panlabs enzyme assay (Eurofins_assay_170020); set-up: substrate with concentration; conditions: Compound concentration 10.0 uM
[14] = target: Interstitial collagenase (Homo sapiens) (UniProt P03956); test: Inhibition of Peptidase, Matrix Metalloproteinase-1 (MMP-1) at 10 µM in the Eurofins-Panlabs enzyme assay (Eurofins_assay_114110); conditions: Compound concentration 10.0 uM
Interstitial collagenase (Homo sapiens), sequence (P03956 whole entry): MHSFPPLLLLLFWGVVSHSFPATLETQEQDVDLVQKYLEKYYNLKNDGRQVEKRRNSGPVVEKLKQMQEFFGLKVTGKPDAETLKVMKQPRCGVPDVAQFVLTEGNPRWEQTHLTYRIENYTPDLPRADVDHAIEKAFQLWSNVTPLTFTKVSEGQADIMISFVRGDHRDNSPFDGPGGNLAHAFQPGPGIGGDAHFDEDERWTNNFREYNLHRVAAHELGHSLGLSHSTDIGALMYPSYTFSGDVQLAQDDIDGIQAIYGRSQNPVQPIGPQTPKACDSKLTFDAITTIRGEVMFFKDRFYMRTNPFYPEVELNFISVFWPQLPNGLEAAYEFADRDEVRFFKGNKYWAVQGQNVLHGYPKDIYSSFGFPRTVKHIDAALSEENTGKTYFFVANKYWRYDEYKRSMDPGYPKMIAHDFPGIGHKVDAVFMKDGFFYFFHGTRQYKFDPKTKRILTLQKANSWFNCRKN

[15] = target: Tyrosine-protein kinase Fyn (Homo sapiens) (UniProt P06241); test: Inhibition of Protein Tyrosine Kinase, Fyn at 10 µM in the Eurofins-Panlabs enzyme assay (Eurofins_assay_172020); set-up: substrate with concentration; conditions: Compound concentration 10.0 uM
Tyrosine-protein kinase Fyn (Homo sapiens), sequence (P06241 2-537 limits assumed): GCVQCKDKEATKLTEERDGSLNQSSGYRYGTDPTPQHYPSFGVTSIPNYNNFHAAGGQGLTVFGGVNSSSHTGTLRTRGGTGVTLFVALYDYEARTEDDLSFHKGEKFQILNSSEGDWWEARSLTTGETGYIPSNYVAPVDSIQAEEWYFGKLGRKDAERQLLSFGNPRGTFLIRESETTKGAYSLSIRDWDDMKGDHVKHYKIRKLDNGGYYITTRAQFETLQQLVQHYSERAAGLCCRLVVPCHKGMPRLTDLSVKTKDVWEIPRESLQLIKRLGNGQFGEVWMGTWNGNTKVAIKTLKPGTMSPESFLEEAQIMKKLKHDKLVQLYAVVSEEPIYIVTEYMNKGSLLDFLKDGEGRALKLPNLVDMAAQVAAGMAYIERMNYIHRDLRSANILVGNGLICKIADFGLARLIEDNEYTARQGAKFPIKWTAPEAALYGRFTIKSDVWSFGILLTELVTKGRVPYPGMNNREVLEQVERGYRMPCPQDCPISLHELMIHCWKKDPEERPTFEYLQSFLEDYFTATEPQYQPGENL

[16] = target: Thromboxane-A synthase (Homo sapiens) (UniProt P24557); test: Inhibition of Thromboxane Synthase at compound concentration of 10.0 uM in the Eurofins-Panlabs enzyme assay (Eurofins_assay_194020); set-up: substrate with concentration; conditions: Compound concentration 10.0 uM
[17] = target: Glycogen synthase kinase-3 beta (Homo sapiens) (UniProt P49841); test: Inhibition of GSK3beta(h) at 10.0 µM in the Eurofins Kinase panel; conditions: Compound concentration 10.0 uM
Glycogen synthase kinase-3 beta (Homo sapiens), sequence (P49841 whole entry, looked up): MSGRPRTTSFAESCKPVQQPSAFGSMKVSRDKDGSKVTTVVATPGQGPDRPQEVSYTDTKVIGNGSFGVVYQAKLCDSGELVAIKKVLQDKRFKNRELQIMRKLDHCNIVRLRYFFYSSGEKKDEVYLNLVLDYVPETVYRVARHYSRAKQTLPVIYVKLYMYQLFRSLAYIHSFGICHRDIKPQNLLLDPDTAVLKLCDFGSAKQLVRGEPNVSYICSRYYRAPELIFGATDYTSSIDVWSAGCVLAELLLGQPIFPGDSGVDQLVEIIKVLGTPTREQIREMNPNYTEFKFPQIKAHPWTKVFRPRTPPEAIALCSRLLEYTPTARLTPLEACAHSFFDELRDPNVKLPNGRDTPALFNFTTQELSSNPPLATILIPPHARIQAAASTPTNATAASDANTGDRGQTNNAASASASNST

[18] = target: Melanocortin receptor 4 (Homo sapiens) (UniProt P32245); test: Inhibition of Melanocortin MC4 at 10 µM in the Eurofins-Panlabs radioligand binding assay (Eurofins_assay_251350); set-up: ligand concentration 0.02 nM; conditions: Compound concentration 10.0 uM
Melanocortin receptor 4 (Homo sapiens), sequence (P32245 whole entry): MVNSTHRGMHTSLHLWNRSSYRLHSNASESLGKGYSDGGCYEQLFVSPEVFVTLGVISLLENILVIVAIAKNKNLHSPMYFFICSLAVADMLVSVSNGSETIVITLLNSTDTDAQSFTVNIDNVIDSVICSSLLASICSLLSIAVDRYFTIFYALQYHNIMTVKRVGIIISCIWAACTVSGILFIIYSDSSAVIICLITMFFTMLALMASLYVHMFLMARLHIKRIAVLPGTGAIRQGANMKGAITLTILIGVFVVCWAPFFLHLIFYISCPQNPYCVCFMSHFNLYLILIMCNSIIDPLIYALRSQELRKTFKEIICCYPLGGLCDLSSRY

[19] = target: 3-hydroxy-3-methylglutaryl-coenzyme A reductase (Homo sapiens) (UniProt P04035); test: Inhibition of HMG-CoA Reductase at compound concentration of 10.0 uM in the Eurofins-Panlabs enzyme assay (Eurofins_assay_124010); set-up: substrate with concentration; conditions: Compound concentration 10.0 uM
3-hydroxy-3-methylglutaryl-coenzyme A reductase (Homo sapiens), sequence (P04035 whole entry): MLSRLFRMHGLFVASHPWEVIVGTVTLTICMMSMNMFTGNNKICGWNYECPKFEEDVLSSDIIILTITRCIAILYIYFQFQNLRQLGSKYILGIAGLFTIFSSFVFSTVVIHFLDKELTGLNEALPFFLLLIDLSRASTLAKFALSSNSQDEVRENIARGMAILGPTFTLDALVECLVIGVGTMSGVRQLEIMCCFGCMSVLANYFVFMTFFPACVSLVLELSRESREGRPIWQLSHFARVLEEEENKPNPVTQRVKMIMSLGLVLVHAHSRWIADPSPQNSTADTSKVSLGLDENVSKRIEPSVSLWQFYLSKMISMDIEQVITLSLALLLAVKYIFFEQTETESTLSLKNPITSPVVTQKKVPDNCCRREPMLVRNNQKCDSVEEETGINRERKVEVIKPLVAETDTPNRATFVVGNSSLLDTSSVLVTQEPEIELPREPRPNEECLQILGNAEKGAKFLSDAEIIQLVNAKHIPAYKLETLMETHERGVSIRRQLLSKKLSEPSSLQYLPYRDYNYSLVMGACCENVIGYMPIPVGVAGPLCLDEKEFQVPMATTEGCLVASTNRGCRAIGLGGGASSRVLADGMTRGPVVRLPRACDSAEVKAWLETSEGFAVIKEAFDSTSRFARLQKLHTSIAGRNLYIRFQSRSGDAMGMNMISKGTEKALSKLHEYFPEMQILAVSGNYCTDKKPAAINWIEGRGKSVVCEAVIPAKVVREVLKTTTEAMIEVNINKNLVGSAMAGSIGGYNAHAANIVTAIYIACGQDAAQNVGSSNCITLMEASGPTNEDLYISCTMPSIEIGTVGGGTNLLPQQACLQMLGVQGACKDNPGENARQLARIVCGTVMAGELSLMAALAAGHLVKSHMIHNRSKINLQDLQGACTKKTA

[20] = target: voltage-gated sodium channel, site 2 (Rattus norvegicus, UniProt F1LQQ7+O08562+O88420+O88457+P04774+P04775+P08104+P15389+P15390+Q62968); test: Inhibition of Sodium Channel, Site 2 at 10 µM in the Eurofins-Panlabs radioligand binding assay (Eurofins_assay_279510); assay type: protein assay; set-up: ligand concentration 5 nM, non-specific ligand with concentration 100 µM Veratridine, incubation time 60 min, incubation temperature 37 °C; conditions: male, Wistar, rat whole brain (except cerebellum) membranes, probe [3H] Batrachotoxinin, compound concentration 10 uM
[21] = target: Melanocortin receptor 3 (Homo sapiens) (UniProt P41968); test: Inhibition of Melanocortin MC3 at 10 µM in the Eurofins-Panlabs radioligand binding assay (Eurofins_assay_251300); set-up: ligand concentration 0.035 nM; conditions: Compound concentration 10.0 uM
[22] = target: cAMP-dependent protein kinase catalytic subunit beta (Homo sapiens) (UniProt P22694); test: Inhibition of PKACbeta(h) at 10.0 µM in the Eurofins Kinase panel; conditions: Compound concentration 10.0 uM
Rattus norvegicus = species: Rattus norvegicus; test: Inhibition of Thyroid Hormone at 10 µM in the Eurofins-Panlabs radioligand binding assay (Eurofins_assay_285900); assay type: protein assay; conditions: Compound concentration 10.0 uM
[23] = target: cGMP-specific 3',5'-cyclic phosphodiesterase (Homo sapiens) (UniProt O76074); conditions: Compound concentration 10.0 uM
[24] = target: GABA-A receptor; anion channel; test: GPCRScan assay: inhibition of GABAA/BZP; assay type: protein-complex assay, Rattus norvegicus; set-up: radioligand conc. used [nm] 0.6 – 4.0, parental cells brain tissue
[25] = target: Melatonin receptor type 1A (Homo sapiens) (UniProt P48039); test: Inhibition of Melatonin MT1 at 10 µM in the Eurofins-Panlabs radioligand binding assay (Eurofins_assay_251600); set-up: ligand concentration 0.05 nM; conditions: Compound concentration 10.0 uM
[26] = target: Progesterone receptor (Homo sapiens) (UniProt P06401); test: Inhibition of Progesterone PR-B at 10 µM in the Eurofins-Panlabs radioligand binding assay (Eurofins_assay_268020); set-up: ligand concentration 1.4 nM; conditions: Compound concentration 10.0 uM
[27] = target: Tyrosine-protein kinase Lck (Homo sapiens) (UniProt P06239); test: Inhibition of Protein Tyrosine Kinase, LCK at 10 µM in the Eurofins-Panlabs enzyme assay (Eurofins_assay_176020); conditions: Compound concentration 10.0 uM
Tyrosine-protein kinase Lck (Homo sapiens), sequence (P06239 2-509 limits assumed): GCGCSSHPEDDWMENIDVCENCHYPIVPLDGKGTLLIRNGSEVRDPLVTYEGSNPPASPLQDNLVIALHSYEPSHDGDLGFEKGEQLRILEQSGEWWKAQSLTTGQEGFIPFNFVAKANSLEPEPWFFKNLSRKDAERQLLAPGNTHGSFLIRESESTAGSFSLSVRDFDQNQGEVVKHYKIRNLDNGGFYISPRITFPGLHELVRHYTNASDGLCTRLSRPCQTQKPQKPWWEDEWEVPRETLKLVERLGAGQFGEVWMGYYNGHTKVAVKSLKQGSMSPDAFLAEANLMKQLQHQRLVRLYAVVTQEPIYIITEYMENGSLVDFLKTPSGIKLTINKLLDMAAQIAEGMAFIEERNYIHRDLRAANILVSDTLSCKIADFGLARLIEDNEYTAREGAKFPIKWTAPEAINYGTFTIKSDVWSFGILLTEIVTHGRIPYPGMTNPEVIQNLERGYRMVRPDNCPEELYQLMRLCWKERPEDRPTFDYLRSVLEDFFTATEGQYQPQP

[28] = target: Serine/threonine-protein kinase BRSK2 (Homo sapiens) (UniProt Q8IWQ3); test: Inhibition of BrSK2(h) at 10.0 µM in the Eurofins Kinase panel; conditions: Compound concentration 10.0 uM
[29] = target: AP2-associated protein kinase 1 (Homo sapiens) (UniProt Q2M2I8); test: Inhibition of AAK1(h) at 10.0 µM in the Eurofins Kinase panel; conditions: Compound concentration 10.0 uM
[30] = target: Mitogen-activated protein kinase 14 (Homo sapiens) (UniProt Q16539); test: Inhibition of SAPK2a(h) at 10.0 µM in the Eurofins Kinase panel; conditions: Compound concentration 10.0 uM
Mitogen-activated protein kinase 14 (Homo sapiens), sequence (Q16539 whole entry): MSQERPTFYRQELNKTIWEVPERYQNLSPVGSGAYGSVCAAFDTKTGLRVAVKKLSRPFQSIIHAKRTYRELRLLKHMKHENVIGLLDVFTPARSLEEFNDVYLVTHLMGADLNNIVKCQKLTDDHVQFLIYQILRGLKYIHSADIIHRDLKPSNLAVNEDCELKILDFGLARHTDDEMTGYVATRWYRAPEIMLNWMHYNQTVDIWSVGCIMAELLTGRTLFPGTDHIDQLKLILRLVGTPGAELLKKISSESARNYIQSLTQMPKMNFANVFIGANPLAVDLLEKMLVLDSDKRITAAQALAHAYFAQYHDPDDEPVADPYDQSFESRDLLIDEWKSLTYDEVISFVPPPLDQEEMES

inhibition [1]: 0.22% | inhibition [2]: 2.09% | inhibition (Oryctolagus cuniculus): -5% | inhibition [3]: -7.62% | inhibition [4]: -2% | inhibition [5]: -5.39% | inhibition [6]: 10% | IC50 (Vasopressin V1a receptor): > 10 µM (not active) | inhibition [7]: 4.92% | inhibition [8]: 25% | inhibition [9]: -1.7%
SMILES: O=c1n(Cc2cncn2-c2cccc(Cl)c2)nc(-c2ccc(Cl)cc2)n1C[C@H](O)C(F)(F)F

SMILES: C[C@H](O)c1nc(Cn2nc(-c3ccc(Cl)cc3)n(C[C@H](O)C(F)(F)F)c2=O)nn1-c1cccc(Cl)c1 [PECAVAPTAN]
inhibition (Caspase-1 (Homo sapiens)): 0% | inhibition [10]: -4% | inhibition [11]: -9.22% | inhibition [12]: 0% | inhibition [13]: -6% | inhibition [14]: 3% | inhibition [15]: -6% | inhibition [16]: -6% | inhibition [17]: -4.15% | inhibition [18]: 4% | inhibition [19]: 9% | inhibition at 60 min, 10 µM [20]: 42% (not active) | inhibition [21]: 6% | inhibition [22]: -5.07% | inhibition (Rattus norvegicus): 6% | inhibition [23]: -10% | Ki [24]: 2610 nM | pKi [24]: 5.58 | inhibition [25]: -6% | inhibition [26]: 0% | inhibition [27]: -9% | inhibition [28]: -4.83% | inhibition [29]: -9.01% | inhibition [30]: -8.61%

From ChEMBL document CHEMBL5463729, “Data for DCP probe BAY 1753011” (2023)
